Test results from ChEMBL document CHEMBL5465560, “Selectivity Literature for EUbOPEN Chemogenomic Library” (2024).
Blank lines part the entries; values can stand above or below the molecule they belong to.

Tests used:
[1] = target: Phosphatidylinositol 4,5-bisphosphate 3-kinase catalytic subunit gamma isoform (Homo sapiens) (UniProt P48736); assay: Selectivity interaction (KinomeScan (DiscoverX)) EUB0000666a PIK3CG; settings: at 10 µM
[2] = target: Cyclin-dependent kinase 5 (Homo sapiens, UniProt Q00535); assay: Selectivity interaction (ActivX KiNativ screen (kinase selectivity in THP-1 cell lysates)) EUB0000639a CDK5; format: subcellular; settings: lysate, at 0.04 µM
Aurora kinase B = Aurora kinase B (Homo sapiens, UniProt Q96GD4); assay: Selectivity interaction (Enyzmatic assay) EUB0000601a AURKB
[3] = target: Tyrosine-protein kinase Lyn (Homo sapiens, UniProt P07948); assay: Selectivity interaction (Ambit KINOMEscan and KiNATiv profiling in Jurkat cells) EUB0000090b LYN; format: cell-based; settings: at 1 µM
[4] = target: T1, Dual specificity protein kinase TTK (Homo sapiens) (UniProt P33981); assay: Selectivity interaction (KinomeScan (DiscoverX)) EUB0001079a TTK; settings: at 1 µM
T1 sequence (whole entry): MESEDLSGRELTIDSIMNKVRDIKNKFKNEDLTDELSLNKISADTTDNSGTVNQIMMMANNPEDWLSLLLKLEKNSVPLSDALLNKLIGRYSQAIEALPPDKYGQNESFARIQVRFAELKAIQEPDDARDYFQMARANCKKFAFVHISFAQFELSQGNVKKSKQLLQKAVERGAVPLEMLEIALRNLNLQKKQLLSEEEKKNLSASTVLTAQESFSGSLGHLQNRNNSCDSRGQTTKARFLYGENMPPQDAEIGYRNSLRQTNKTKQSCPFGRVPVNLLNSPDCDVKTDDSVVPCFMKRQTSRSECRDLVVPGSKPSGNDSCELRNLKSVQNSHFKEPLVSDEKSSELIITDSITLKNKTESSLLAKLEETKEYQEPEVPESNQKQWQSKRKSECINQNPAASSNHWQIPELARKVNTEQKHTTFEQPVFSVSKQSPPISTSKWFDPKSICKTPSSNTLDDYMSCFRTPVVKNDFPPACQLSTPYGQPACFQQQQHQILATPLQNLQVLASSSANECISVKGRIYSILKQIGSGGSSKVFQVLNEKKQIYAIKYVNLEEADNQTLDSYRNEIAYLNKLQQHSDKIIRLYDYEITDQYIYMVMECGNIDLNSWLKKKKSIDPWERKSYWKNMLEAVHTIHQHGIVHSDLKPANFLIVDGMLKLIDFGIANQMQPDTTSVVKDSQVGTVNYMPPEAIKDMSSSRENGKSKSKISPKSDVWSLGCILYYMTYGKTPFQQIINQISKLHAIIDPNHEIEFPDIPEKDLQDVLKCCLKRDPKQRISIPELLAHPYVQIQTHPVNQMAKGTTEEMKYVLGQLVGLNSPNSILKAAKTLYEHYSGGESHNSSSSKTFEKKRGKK

[5] = target: Alpha-1D adrenergic receptor (Homo sapiens) (UniProt P25100); assay: Selectivity interaction (GPCR panel (PDSP screen)) EUB0001079a ADRA1D; settings: at 10 µM
[6] = target: T2, Bromodomain-containing protein 1 (Homo sapiens) (UniProt O95696); assay: Selectivity interaction (PWWP, WD40, and Tudor domain panel (DSLS measurements, literature)) EUB0000270b BRD1
T2 sequence (whole entry): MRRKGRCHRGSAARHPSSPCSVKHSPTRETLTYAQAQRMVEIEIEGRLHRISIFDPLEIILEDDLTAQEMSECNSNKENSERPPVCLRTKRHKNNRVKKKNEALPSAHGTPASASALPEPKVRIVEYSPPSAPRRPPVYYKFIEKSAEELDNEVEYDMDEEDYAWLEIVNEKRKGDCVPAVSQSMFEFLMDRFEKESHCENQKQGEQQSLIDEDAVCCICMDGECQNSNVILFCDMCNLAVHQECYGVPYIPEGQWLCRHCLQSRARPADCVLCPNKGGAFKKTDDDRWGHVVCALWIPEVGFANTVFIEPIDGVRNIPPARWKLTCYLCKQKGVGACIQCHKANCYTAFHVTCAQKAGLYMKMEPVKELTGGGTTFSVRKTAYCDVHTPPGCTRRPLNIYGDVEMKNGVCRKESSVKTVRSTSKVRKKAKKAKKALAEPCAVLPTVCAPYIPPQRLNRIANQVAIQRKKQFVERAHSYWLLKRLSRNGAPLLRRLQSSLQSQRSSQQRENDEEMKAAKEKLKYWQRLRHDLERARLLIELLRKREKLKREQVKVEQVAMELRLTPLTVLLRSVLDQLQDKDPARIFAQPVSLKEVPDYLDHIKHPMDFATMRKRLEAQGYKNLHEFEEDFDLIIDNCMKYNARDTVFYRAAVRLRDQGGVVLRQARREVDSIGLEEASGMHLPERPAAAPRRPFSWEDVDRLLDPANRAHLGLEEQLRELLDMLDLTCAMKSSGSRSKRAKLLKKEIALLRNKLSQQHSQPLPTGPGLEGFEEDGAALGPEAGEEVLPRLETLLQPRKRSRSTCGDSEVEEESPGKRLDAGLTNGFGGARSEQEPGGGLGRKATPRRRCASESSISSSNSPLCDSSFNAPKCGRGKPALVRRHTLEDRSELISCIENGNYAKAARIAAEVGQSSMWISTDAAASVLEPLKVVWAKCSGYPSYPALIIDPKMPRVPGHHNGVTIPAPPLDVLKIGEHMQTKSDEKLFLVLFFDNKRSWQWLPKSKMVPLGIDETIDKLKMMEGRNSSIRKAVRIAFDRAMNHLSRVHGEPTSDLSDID

[7] = test system: Proto-oncogene tyrosine-protein kinase receptor Ret (Homo sapiens), P07949 [V804L]; settings: at 10 µM
[8] = target: Rho-associated protein kinase 2 (Homo sapiens, UniProt O75116); assay: Selectivity interaction (ActivX KiNativ screen (ex vivo kinase selectivity in human PBMCs)) EUB0001619a ROCK2; format: cell-based; settings: PBMC, at 1 µM
Chain of Rho-associated protein kinase 2 (O75116 whole entry, looked up): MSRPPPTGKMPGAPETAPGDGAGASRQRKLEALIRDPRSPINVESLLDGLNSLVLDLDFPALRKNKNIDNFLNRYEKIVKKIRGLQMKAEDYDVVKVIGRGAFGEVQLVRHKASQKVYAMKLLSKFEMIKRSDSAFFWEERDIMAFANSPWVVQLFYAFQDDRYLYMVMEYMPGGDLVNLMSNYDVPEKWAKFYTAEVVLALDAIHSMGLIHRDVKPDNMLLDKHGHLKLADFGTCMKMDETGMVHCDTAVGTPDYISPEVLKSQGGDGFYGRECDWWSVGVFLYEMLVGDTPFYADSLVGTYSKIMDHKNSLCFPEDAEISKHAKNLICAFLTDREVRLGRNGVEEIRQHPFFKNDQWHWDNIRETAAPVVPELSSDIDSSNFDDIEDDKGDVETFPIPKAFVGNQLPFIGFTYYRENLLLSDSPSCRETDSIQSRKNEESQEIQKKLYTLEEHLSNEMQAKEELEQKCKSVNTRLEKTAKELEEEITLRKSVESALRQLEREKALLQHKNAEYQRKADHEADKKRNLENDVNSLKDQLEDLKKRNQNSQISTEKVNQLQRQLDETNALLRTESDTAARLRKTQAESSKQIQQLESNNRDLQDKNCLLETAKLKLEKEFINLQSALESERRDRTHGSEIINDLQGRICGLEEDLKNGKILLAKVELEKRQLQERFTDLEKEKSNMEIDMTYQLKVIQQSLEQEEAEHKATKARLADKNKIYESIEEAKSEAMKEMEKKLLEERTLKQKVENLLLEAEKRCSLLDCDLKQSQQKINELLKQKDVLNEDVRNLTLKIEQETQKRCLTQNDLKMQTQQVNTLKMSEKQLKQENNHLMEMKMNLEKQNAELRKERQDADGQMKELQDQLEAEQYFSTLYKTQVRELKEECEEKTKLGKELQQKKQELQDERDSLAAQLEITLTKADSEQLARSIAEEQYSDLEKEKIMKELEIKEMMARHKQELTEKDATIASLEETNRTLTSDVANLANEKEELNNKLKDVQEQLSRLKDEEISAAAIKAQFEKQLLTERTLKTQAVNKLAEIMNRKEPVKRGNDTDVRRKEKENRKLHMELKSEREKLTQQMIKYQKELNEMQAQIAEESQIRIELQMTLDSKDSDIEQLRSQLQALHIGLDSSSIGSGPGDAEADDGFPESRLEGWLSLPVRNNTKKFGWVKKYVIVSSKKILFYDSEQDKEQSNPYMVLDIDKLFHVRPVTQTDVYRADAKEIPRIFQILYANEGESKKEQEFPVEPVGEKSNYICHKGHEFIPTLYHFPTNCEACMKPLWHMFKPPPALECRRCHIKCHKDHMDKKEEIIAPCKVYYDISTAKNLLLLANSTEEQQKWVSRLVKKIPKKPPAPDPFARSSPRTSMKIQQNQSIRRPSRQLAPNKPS

Chain of Alpha-1D adrenergic receptor (Homo sapiens) (P25100 whole entry, the tested form may be a part): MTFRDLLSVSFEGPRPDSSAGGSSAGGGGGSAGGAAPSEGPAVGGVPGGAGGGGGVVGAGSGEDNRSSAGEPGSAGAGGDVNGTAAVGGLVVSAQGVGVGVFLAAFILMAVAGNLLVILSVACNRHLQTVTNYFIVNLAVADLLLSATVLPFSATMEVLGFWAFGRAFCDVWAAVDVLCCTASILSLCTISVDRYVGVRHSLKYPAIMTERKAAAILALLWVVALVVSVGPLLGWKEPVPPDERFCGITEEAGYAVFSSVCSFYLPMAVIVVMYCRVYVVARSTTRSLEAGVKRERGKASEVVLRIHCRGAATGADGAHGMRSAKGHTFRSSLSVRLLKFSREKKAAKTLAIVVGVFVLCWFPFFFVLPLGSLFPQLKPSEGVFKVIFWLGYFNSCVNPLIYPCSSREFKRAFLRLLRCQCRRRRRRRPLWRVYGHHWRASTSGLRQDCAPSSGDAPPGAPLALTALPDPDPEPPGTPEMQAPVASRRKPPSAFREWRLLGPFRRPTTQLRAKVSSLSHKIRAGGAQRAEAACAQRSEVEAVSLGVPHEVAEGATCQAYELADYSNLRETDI
Chain of Cyclin-dependent kinase 5 (Q00535 whole entry, looked up): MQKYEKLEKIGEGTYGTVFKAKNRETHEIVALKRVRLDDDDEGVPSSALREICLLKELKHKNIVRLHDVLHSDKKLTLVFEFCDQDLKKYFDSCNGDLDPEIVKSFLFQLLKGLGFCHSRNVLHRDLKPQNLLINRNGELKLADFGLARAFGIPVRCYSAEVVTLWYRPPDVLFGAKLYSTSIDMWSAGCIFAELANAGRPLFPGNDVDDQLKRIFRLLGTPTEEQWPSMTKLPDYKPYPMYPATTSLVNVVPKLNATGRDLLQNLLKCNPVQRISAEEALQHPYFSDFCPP
Chain of Tyrosine-protein kinase Lyn (P07948 2-512 limits assumed): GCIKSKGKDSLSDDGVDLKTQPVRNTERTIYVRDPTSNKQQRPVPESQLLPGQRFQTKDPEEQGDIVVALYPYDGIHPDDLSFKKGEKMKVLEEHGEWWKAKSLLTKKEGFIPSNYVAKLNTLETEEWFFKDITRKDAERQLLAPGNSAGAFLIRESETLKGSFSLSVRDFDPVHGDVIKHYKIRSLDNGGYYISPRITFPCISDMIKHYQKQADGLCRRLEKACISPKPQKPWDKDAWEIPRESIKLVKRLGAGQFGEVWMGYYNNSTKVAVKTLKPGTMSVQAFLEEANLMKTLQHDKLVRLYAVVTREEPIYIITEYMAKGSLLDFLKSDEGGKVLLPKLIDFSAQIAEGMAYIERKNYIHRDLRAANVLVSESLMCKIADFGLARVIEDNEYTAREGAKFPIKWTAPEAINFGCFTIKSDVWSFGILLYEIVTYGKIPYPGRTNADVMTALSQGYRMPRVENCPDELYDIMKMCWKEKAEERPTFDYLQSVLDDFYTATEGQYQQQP
Chain of Proto-oncogene tyrosine-protein kinase receptor Ret (Homo sapiens), P07949 [V804L] (P07949 whole entry V804L): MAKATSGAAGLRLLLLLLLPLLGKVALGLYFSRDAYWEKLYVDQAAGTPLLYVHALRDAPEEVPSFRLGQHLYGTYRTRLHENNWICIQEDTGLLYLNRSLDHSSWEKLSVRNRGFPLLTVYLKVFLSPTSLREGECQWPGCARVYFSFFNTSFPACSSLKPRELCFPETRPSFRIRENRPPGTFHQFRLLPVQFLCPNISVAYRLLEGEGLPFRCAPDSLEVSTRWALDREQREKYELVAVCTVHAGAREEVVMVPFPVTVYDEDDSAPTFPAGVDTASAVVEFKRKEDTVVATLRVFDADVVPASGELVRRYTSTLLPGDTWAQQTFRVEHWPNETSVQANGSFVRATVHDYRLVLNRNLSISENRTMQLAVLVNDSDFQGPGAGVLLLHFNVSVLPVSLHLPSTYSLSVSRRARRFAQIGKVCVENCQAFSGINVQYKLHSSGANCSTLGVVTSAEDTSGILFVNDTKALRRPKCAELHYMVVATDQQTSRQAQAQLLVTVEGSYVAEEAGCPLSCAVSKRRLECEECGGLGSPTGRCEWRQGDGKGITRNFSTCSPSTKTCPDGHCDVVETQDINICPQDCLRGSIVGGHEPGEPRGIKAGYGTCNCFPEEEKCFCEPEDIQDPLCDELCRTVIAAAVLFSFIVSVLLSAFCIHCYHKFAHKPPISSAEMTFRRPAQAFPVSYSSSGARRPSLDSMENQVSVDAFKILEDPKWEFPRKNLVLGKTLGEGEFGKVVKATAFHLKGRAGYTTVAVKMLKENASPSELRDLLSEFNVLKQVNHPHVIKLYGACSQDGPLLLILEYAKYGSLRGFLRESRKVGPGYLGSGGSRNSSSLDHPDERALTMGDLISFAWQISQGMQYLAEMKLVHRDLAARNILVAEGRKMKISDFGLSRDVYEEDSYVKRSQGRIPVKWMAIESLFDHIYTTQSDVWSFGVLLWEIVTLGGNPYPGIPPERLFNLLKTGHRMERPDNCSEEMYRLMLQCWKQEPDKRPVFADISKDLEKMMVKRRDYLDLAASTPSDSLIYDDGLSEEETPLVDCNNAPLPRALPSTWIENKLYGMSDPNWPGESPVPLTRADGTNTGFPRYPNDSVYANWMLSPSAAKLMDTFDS
Chain of Aurora kinase B (Q96GD4 whole entry): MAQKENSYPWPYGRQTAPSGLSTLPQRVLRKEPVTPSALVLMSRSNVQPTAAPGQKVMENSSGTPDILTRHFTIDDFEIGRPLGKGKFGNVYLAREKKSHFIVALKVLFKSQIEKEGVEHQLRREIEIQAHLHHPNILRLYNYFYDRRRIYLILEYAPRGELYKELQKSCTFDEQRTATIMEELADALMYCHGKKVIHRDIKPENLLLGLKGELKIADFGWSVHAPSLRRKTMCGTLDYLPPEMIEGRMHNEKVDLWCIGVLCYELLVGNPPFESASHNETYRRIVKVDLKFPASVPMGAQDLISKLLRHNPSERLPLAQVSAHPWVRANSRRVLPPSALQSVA

Structure (SMILES): O=C(NOC[C@H](O)CO)c1ccc(F)c(F)c1Nc1ccc(I)cc1F
% of control [1]: 88%

% of inhibition [2]: 8.4%
Structure (SMILES): CC[C@@H]1[C@H](F)C(=O)N[C@@H]1COc1nccc2cc(C(N)=O)c(OC)cc12 [ZIMLOVISERTIB]

IC50 (Aurora kinase B): > 4 µM
Structure (SMILES): CCc1cc(Nc2nccc(-c3c(-c4ccc(OC)c(C(=O)Nc5c(F)cccc5F)c4)nc4ccccn34)n2)c(OC)cc1N1CCC(N2CCN(S(C)(=O)=O)CC2)CC1

Structure (SMILES): CN(C)C/C=C/C(=O)Nc1ccc(C(=O)N2CCCC(Nc3ncc(Cl)c(-c4c[nH]c5ccccc45)n3)C2)cc1 (centres undefined)
% of control [3]: 100%

Structure (SMILES): Nc1cnc(N2CCc3cc(S(=O)(=O)Nc4c(F)cc(Cl)cc4F)cc(N4CCCC4=O)c32)nc1 [TP-020n]
% of control [4]: 90%
% of inhibition [5]: -2.31%

dTagg [6]: -2.2 K
Structure (SMILES): Cc1cc(CN)cc(C)c1-c1ncn(C)c1-c1cncn1C

Structure (SMILES): Cc1cc([C@@H](C)Nc2ccccc2C(=O)O)c2nc(N3CCOCC3)cc(=O)n2c1 [AZD-6482]
% of control [7]: 99%

Structure (SMILES): N#Cc1cccc(-c2c[nH]c3ncnc(N4CCOCC4)c23)c1
% of inhibition [8]: 2%
